Legend:
MCF-7 cells = test: Annexin V-FITC/PI apoptosis assay (flow cytometry); format: cell-based, human; settings: 48 h
Description: Among the cell death pathways, apoptosis is very important to maintain cellular homeostasis. However, upon severe and irreparable cellular stress, all cells, including cancer cells, undergo apoptosis. In this work, the Annexin V–FITC/PI double-staining method was used in assessing the development of apoptosis when MCF-7 cells are exposed to compound 33 (0.1 and 0.5 μM for 48 h). MCF-7 cells were first treated with compound 33 for 48 h followed by staining with Annexin V–fluorescein isothiocyanate (FITC)/propidium iodide (PI). Live cells (Annexin V^−/PI^−), early apoptotic cells (Annexin V^+/PI^−), late apoptotic cells (Annexin V+/PI+) and necrotic cells (Annexin V^−/PI^+) can be differentiated by tie technique following flow cytometric analysis (Figure 5). The positive control CA-4 (at 50 nM concentration) induced 34.6% Annexin V-positive apoptotic cells, and the vehicle control used was 0.1% ethanol (v/v).
Apoptotic cell death was monitored by flow cytometry using Annexin V and propidium iodide (PI) as previously described by us. MCF-7 cells were seeded in 6-well plates at a density of 1 × 10^5 cells/mL and treated with either vehicle (0.1% (v/v) EtOH) or β-lactam compound 33 at concentrations 0.1 and 0.5 µM for 48 h. Cells were harvested and prepared for flow cytometric analysis. Cells were washed in 1X binding buffer (20X binding buffer: 0.1 M HEPES, pH 7.4; 1.4 M NaCl; 25 mM CaCl2 diluted in dH2O) and incubated in the dark for 30 min on ice in Annexin V-containing binding buffer [1:100]. Cells were then washed in binding buffer and then re-suspended in PI-containing binding buffer (1:1000). Samples were then analysed with the BD Accuri flow cytometer and Prism software. The resulting cell populations were identified as Annexin V- and PI-negative (Q4, healthy cells), Annexin V-positive and PI-negative (Q3, early apoptosis), Annexin V- and PI-positive (Q2, late apoptosis) and Annexin V-negative and PI-positive (Q1, necrosis). The positive control for induction of cell death was […].
Figure 5 Compound 33 induces apoptosis in MCF-7 breast cancer cells. […] .

SW-480 cells = test: AlamarBlue cell viability assay; format: cell-based
Description: Compound # (Treatment Concentration µM) […]
different para-substituent ring B 26-29; 3-fluoro β-lactam compounds containing different meta-substituent ring B 30, 33-35; (B) 3,3-difluoro β-lactam compounds containing different para-substituent ring B 36-39; 3,3-difluoro β-lactam compounds containing different meta-substituent […]
ring B 40, 42-45 in SW-480 cancer cells.
Cell proliferation of MCF-7 cells was determined with an alamarBlue assay (seeding density […]
Compound concentrations of either 10 μM or 1 μM for 72 h were used to treat the cells with control wells containing vehicle ethanol (1%

OVCAR-5 = test: NCI 60 cell line screen, Ovarian; format: cell-based, human; settings: for inhibition at 10 µM / Growth %: one dose 10 µM
SF-295 = test: NCI 60 cell line screen, CNS; format: cell-based, human; settings: for inhibition at 10 µM / Growth %: one dose 10 µM
DU-145 = test: NCI 60 cell line screen, Prostate; format: cell-based, human; settings: for inhibition at 10 µM / Growth %: one dose 10 µM
HCC-2998 = test: NCI 60 cell line screen, Colon; format: cell-based, human; settings: for inhibition at 10 µM / Growth %: one dose 10 µM
BT-549 = test: NCI 60 cell line screen, Breast; format: cell-based, human; settings: for inhibition at 10 µM / Growth %: one dose 10 µM
SW-620 = test: NCI 60 cell line screen, Colon; format: cell-based, human; settings: for inhibition at 10 µM / Growth %: one dose 10 µM
SK-MEL-5 = test: NCI 60 cell line screen, Melanoma; format: cell-based, human; settings: for inhibition at 10 µM / Growth %: one dose 10 µM
SK-MEL-2 = test: NCI 60 cell line screen, Melanoma; format: cell-based, human; settings: for inhibition at 10 µM / Growth %: one dose 10 µM
TK-10 = test: NCI 60 cell line screen, Renal; format: cell-based, human; settings: for inhibition at 10 µM / Growth %: one dose 10 µM
SN12C = test: NCI 60 cell line screen, Renal; format: cell-based, human; settings: for inhibition at 10 µM / Growth %: one dose 10 µM
HT29 = test: NCI 60 cell line screen, Colon; format: cell-based, human; settings: for inhibition at 10 µM: HT-29, one dose 10 µM; for Growth %: one dose 10 µM
HOP-62 = test: NCI 60 cell line screen, NSCLung; format: cell-based, human; settings: for inhibition at 10 µM / Growth %: one dose 10 µM

COc1ccc(/C=C\c2cc(OC)c(OC)c(OC)c2)cc1O [CA-4, combretastatin A-4, reference compound]
viability at 0.05 µM (MCF-7 cells; Homo sapiens, MCF7, MCF-7, 50 nM, read-out: Viable cells): 61.8% | Annexin V-positive apoptotic cells (MCF-7 cells; MCF-7, 50 nM): 34.6% | IC50 (SW-480 cells; Homo sapiens, SW480 cells): 0.0063 ± 0.0006 µM

COc1ccc(C2C(F)C(=O)N2c2cc(OC)c(OC)c(OC)c2)cc1F (stereo not shown) [Compound 33, 3-Fluoro-4-(3-fluoro-4-methoxyphenyl)-1-(3,4,5-trimethoxyphenyl)azetidin-2-one]
TGI (OVCAR-5; 5-dose, 48 h): >100 µM | GI50 (OVCAR-5; Homo sapiens, 5-dose, 48 h): 0.423 µM | inhibition at 10 µM (OVCAR-5; Homo sapiens): 56.4% | Growth % (OVCAR-5): 43.57% | TGI (SF-295; 5-dose, 48 h): >100 µM | GI50 (SF-295; Homo sapiens, 5-dose, 48 h): 0.0535 µM | inhibition at 10 µM (SF-295; Homo sapiens): 81.4% | Growth % (SF-295): 18.61% | TGI (DU-145; 5-dose, 48 h): >100 µM | GI50 (DU-145; Homo sapiens, 5-dose, 48 h): 0.269 µM | inhibition at 10 µM (DU-145; Homo sapiens): 90.5% | Growth % (DU-145): 9.46% | TGI (HCC-2998; 5-dose, 48 h): >100 µM | GI50 (HCC-2998; Homo sapiens, 5-dose, 48 h): 0.406 µM | inhibition at 10 µM (HCC-2998; Homo sapiens): 67.1% | Growth % (HCC-2998): 32.93% | viability at 0.1 µM (MCF-7 cells; Homo sapiens, MCF7, MCF-7, 0.1 μM, read-out: Viable cells): 84.9% | viability at 0.5 µM (MCF-7 cells; Homo sapiens, MCF7, MCF-7, 0.5 μM, read-out: Viable cells): 48.8% | apoptosis (early + late) (MCF-7 cells; MCF-7, 0.1 μM): 14.2% | early apoptotic cells (MCF-7 cells; MCF-7, 0.1 μM): 8.1% | late apoptotic cells (MCF-7 cells; MCF-7, 0.1 μM): 6.1% | apoptosis (early + late) (MCF-7 cells; MCF-7, 0.5 μM): 45.9% | early apoptotic cells (MCF-7 cells; MCF-7, 0.5 μM): 22.1% | late apoptotic cells (MCF-7 cells; MCF-7, 0.5 μM): 23.8% | TGI (BT-549; 5-dose, 48 h): 33.8 µM | GI50 (BT-549; Homo sapiens, 5-dose, 48 h): 0.0498 µM | inhibition at 10 µM (BT-549; Homo sapiens): 84.7% | Growth % (BT-549): 15.26% | cells remaining (SW-480 cells; SW-480, 10 μM, 72 h): 62% | TGI (SW-620; 5-dose, 48 h): >100 µM | GI50 (SW-620; Homo sapiens, 5-dose, 48 h): 0.0562 µM | inhibition at 10 µM (SW-620; Homo sapiens): 71.3% | Growth % (SW-620): 28.73% | TGI (SK-MEL-5; 5-dose, 48 h): 0.35 µM | GI50 (SK-MEL-5; Homo sapiens, 5-dose, 48 h): 0.0456 µM | CC50 (SK-MEL-5; Homo sapiens, 5-dose, 48 h, read-out: LC50 (the source's name)): 91.3 µM | inhibition at 10 µM (SK-MEL-5; Homo sapiens): 131% | Growth % (SK-MEL-5): -31.46% | TGI (SK-MEL-2; 5-dose, 48 h): >100 µM | GI50 (SK-MEL-2; Homo sapiens, 5-dose, 48 h): 0.303 µM | inhibition at 10 µM (SK-MEL-2; Homo sapiens): 41.2% | Growth % (SK-MEL-2): 58.83% | TGI (TK-10; 5-dose, 48 h): >100 µM | GI50 (TK-10; Homo sapiens, 5-dose, 48 h): 38.6 µM | inhibition at 10 µM (TK-10; Homo sapiens): 35.6% | Growth % (TK-10): 64.4% | TGI (SN12C; 5-dose, 48 h): >100 µM | GI50 (SN12C; Homo sapiens, 5-dose, 48 h): 0.482 µM | inhibition at 10 µM (SN12C; Homo sapiens): 66.7% | Growth % (SN12C): 33.29% | TGI (HT29; 5-dose, 48 h): >100 µM | GI50 (HT29; Homo sapiens, HT-29, 5-dose, 48 h): 0.134 µM | inhibition at 10 µM (HT29; Homo sapiens): 96.3% | Growth % (HT29): 3.73% | TGI (HOP-62; 5-dose, 48 h): >100 µM | GI50 (HOP-62; Homo sapiens, 5-dose, 48 h): 0.511 µM | inhibition at 10 µM (HOP-62; Homo sapiens): 68.2% | Growth % (HOP-62): 31.85%

CCOc1ccc(C2N(c3cc(OC)c(OC)c(OC)c3)C(=O)C2(F)F)cc1 (stereo not shown) [Compound 37, 4-(4-Ethoxyphenyl)-3,3-difluoro-1-(3,4,5-trimethoxyphenyl)azetidin-2-one]
inhibition at 10 µM (OVCAR-5; Homo sapiens): 33.5% | Growth % (OVCAR-5): 66.47% | inhibition at 10 µM (SF-295; Homo sapiens): 43.7% | Growth % (SF-295): 56.32% | inhibition at 10 µM (DU-145; Homo sapiens): 70% | Growth % (DU-145): 30.05% | inhibition at 10 µM (HCC-2998; Homo sapiens): 18.3% | Growth % (HCC-2998): 81.66% | inhibition at 10 µM (BT-549; Homo sapiens): 55.8% | Growth % (BT-549): 44.17% | inhibition at 10 µM (SW-620; Homo sapiens): 74.5% | Growth % (SW-620): 25.47% | inhibition at 10 µM (SK-MEL-5; Homo sapiens): 93.2% | Growth % (SK-MEL-5): 6.76% | inhibition at 10 µM (SK-MEL-2; Homo sapiens): 8.22% | Growth % (SK-MEL-2): 91.78% | inhibition at 10 µM (TK-10; Homo sapiens): -3.32% | Growth % (TK-10): 103.32% | inhibition at 10 µM (SN12C; Homo sapiens): 49% | Growth % (SN12C): 50.97% | inhibition at 10 µM (HT29; Homo sapiens): 87.7% | Growth % (HT29): 12.27% | inhibition at 10 µM (HOP-62; Homo sapiens): 59.2% | Growth % (HOP-62): 40.81%

COc1ccc(C2N(c3cc(OC)c(OC)c(OC)c3)C(=O)C2(F)F)cc1F (stereo not shown) [Compound 43, 3,3-Difluoro-4-(3-fluoro-4-methoxyphenyl)-1-(3,4,5-trimethoxyphenyl)azetidin-2-one]
inhibition at 10 µM (OVCAR-5; Homo sapiens): 21.3% | Growth % (OVCAR-5): 78.72% | inhibition at 10 µM (SF-295; Homo sapiens): 51.7% | Growth % (SF-295): 48.29% | inhibition at 10 µM (DU-145; Homo sapiens): 74.8% | Growth % (DU-145): 25.22% | inhibition at 10 µM (HCC-2998; Homo sapiens): 15.8% | Growth % (HCC-2998): 84.2% | inhibition at 10 µM (BT-549; Homo sapiens): 65% | Growth % (BT-549): 34.99% | inhibition at 10 µM (SW-620; Homo sapiens): 78.8% | Growth % (SW-620): 21.22% | inhibition at 10 µM (SK-MEL-5; Homo sapiens): 91.9% | Growth % (SK-MEL-5): 8.08% | inhibition at 10 µM (SK-MEL-2; Homo sapiens): 15.4% | Growth % (SK-MEL-2): 84.61% | inhibition at 10 µM (TK-10; Homo sapiens): -5.64% | Growth % (TK-10): 105.64% | inhibition at 10 µM (SN12C; Homo sapiens): 45.1% | Growth % (SN12C): 54.92% | inhibition at 10 µM (HT29; Homo sapiens): 88.8% | Growth % (HT29): 11.16% | inhibition at 10 µM (HOP-62; Homo sapiens): 61.6% | Growth % (HOP-62): 38.43%

Source: PMC9501633, “Synthesis, Characterisation and Mechanism of Action of Anticancer 3-Fluoroazetidin-2-ones” (Pharmaceuticals, 2022)
